Data taken from PMC6573034 (Nature Communications, 2019).

Key:
MCT4 (SLC16A3) = conditions: MCT4, L-lactate; cited from earlier work
[1] = system: vector-transformed E. coli JA202; assay: Micro pH electrode-based transport assay, vector-transformed E. coli JA202; assay type: cell-based; conditions: 10 mM compound (pH 6.5) added to vector-transformed bacterial suspension pH 6.7
Experimental: A measuring set up as previously reported[18] was used for micro pH electrode-based transport measurements. SfMCT was expressed in E. coli JA202 (MC4100 glcA::cat lldP::kan)[15] as described for uptake experiments. After expression, bacteria were pelleted (5,200 × g, 10 min, room temperature), washed twice in assay solution (250 mM KCl, 1 mM MgSO4, 2 mM CaCl2; 5,200 × g, 10 min, room temperature) and finally resuspended in assay solution to a bacterial density of OD600 15. Compounds that were assayed for proton-coupled transport were dissolved in assay solution and the pH was adjusted to 6.5. 800 µl of bacteria suspension were transferred into a 2 ml reaction tube (Eppendorf) and the pH value of the bacterial suspension (extracellular medium) was measured using a micro pH electrode with integrated temperature sensor (InLab Micro Pro, Mettler Toledo) under constant stirring. The pH of the bacterial suspension was adjusted to pH 6.7 using potassium hydroxide and hydrochloric acid. The SevenCompact pH-meter (Mettler Toledo), together with LabX direct pH 2.3 software (Mettler Toledo), were used for automatic recording in 15 s intervals. Measurements were initiated by adding 10 mM of the corresponding compound to the bacterial suspension. All experiments were performed at 24 °C.

SfMCT R256D = target: T1, SfMCT R256D (Syntrophobacter fumaroxidans, UniProt A0LNN5, R256D); assay: [14C]L-lactate in vivo uptake assay, mutant R256D; assay type: cell-based; conditions: R256D versus WT
T1 construct: expressed in transfected cells; host or cells: E. coli JA202 (MC4100 glcA::cat lldP::kan), plasmid pEXT20-SfMCT-3C-10His
T1 sequence (A0LNN5 whole entry R256D): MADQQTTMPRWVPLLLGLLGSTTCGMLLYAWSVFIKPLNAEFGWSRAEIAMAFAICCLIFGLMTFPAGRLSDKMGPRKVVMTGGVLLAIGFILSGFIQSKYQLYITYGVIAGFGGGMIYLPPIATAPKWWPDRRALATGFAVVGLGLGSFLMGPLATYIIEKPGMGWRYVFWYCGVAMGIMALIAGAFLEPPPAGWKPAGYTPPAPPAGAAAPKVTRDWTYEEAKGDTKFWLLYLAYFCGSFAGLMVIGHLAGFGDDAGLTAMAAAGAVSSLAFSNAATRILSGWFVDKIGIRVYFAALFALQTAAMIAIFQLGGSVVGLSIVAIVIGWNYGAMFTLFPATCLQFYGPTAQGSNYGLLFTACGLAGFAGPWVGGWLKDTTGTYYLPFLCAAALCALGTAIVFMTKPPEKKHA
Experimental: The cultures were grown at 37 °C and 180 r.p.m. in an incubator shaker (Multitron, Infors HT). Protein expression was induced at OD600 ~0.5 by addition of IPTG to a final concentration of 0.25 mM. After 4 h, bacteria were pelleted (5,200 × g, 10 min, room temperature) and resuspended in uptake buffer (20 mM Bis-Tris propane-HCl (pH 6.7), 250 mM KCl) to a bacteria density of OD600 12. […] Furthermore, [3-3 H] propionic acid sodium salt ([^3H]propionate, American Radiolabeled Chemicals, specific activity 30 Ci/mmol), n-[2,3-3 H] butyric acid sodium salt ([^3H]butyrate, American Radiolabeled Chemicals, specific activity 120 Ci/mmol), and [1–14 C] pyruvic acid sodium salt ([^14C]pyruvate, specific activity 0.055 Ci/mmol American Radiolabeled Chemicals) were also used for transport experiments. […] Cpm values of each experiment were normalized with respect to the determined upper plateau value, i.e., the fitted upper plateau value corresponds to 100%. The arithmetic average of three independent experiments was calculated. […] His-tagged transporters were detected using an anti-His5 (Qiagen, catalogue number 34660, primary antibody) at a dilution of 1:3,000 and a goat anti-mouse IgG (H + L) HRP conjugate antibody (Biorad, catalogue number 172-1011, secondary antibody) at a dilution of 1:2,500.

MCT3 (SLC16A8) = conditions: MCT3, L-lactate; cited from earlier work

Which Km (MCT4 (SLC16A3)) does the source give for `C[C@H](O)C(=O)O` [L-lactate] here?
Its Km is 20 to 35 mM.

And the “proton-coupled transport, change of extracellular pH (in words)” value [1]?
The value was “significantly slower and lower pH increase”.

What about the “increase of [14C]L-lactate transport” value (SfMCT R256D) of the same compound?
The value was ~ 2.5 fold.

What about the Km (MCT3 (SLC16A8)) of the same compound?
Its Km is about 6 mM.
